The target of the experiment is T1, human Nav1.1 (Homo sapiens, UniProt P35498).
T1 construct: host or cells: HEK293
Briefly: Amplification of Nav1.1-derived voltage-dependent sodium current (Nav1.1 current), cell line stably expressing human Nav1.1, automated patch clamp. Format: cell-based. To be noted: for activation at 10 µM / activation at 1 µM: read-out: Nav1.1 current amplification rate (%); for activation at 1 µM: Concentration 1 μM (Test Result 7). On the procedure:
Test 1: Evaluation of the Amplification of Nav1.1-Derived Voltage-Dependent Sodium Current (Nav1.1 Current) by Using a Cell Line Stably Expressing Human Nav1.1
(1) Preparation of Test Compounds
Test compounds were prepared by dissolving in DMSO at 200 times of the concentration at evaluation, and diluting the obtained solution to twice the concentration of evaluation with an extracellular fluid (135 mmol/L NaCl, 4 mmol/L KCl, 1 mmol/L MgCl2, 5 mmol/L CaCl2, 5 mmol/L Glucose, 10 mmol/L HEPES).
(2) Induction and Measurement of Nav1.1 Current
A HEK293 cell line stably expressing human Nav1.1 (cat #CYL3009, Millipore, USA, Human Embryonic Kidney 293) was purchased, and used in the present test. Nav1.1 current was induced by stimulating Ramp wave voltage. Detection of current which accompanied with the stimulation of voltage was carried out by a patch-clamp voltage-clamp method using HTS automated patch clamp system (SynchroPatch 768PE, Nanion Technologies GmbH, Germany). Only cells with more than 500 pA of voltage-dependent sodium channel current were used for the evaluation of the activity of compounds on Nav1.1 current because there was the possibility that currents derived from endogenous voltage-dependent sodium channels accounted for large proportion in cells with less than 500 pA of voltage-dependent sodium channel current which was induced by stimulating Ramp wave voltage.
(3) Pharmacologic Effect on Nav1.1 Current
The effect of test compounds on the amplification of Nav1.1-derived voltage-dependent sodium current was evaluated by using a cell line stably expressing human Nav1.1 and HTS automated patch clamp system. In other words, test compounds were added in an extracellular fluid containing 1% DMSO, and evaluated as a change of the peak value of Nav1.1 current and the area under the curve (AUC).
(4) Method for Pharmacological Evaluation
The Nav1.1 current amplification rates of test compounds were calculated by the following formula:
Nav1.1 current amplification rate (%)=100×[the peak value of Nav1.1 current or the area under the curve after the addition of test compounds]/[the peak value of Nav1.1 current or the area under the curve before the addition of test compounds]−100

Where [1] appears, read: 10 μmol/L compound (Test Result 5).
The mark [2] stands for this setting: compound 50 μmol/L, HEK293 stably expressing human Nav1.1.
[3] abbreviates: Concentration 10 μM (Test Result 7).
Setting [4] is: concentration of each compound 1 μmol/L (Test Result 6).

Like-named read-outs stand apart in the source and are kept apart here.

This note sets out measurements from US20220347175A1, “PYRIDAZINONE DERIVATIVE” (Sumitomo Dainippon Pharma Co., Ltd., priority 2018, published 2022).

`CC1(C)CCN(c2ccc(=O)n(CC(=O)Nc3ccc(C#N)cc3)n2)C1` [Example 21]: under setting [1], the “Nav1.1 current amplification rate (%)” value came out at 130%.
As for `Cc1cc2ncnn2cc1NC(=O)Cn1nc(C2=CCC(C)CC2)ccc1=O` (racemic) [Example 351], the “Nav1.1 current amplification rate (%)” value under setting [2] is listed as 98%.
Take `CN(CC1CC1)c1ccc(=O)n(CC(=O)Nc2ccn3ncnc3c2)n1` [Example 559]: the activation at 10 µM under setting [3] was 34%.
On to `CC1CC=C(c2ccc(=O)n(CC(=O)Nc3cccc(-n4ccnc4)c3)n2)CC1` (racemic) [Example 363], for which the “Nav1.1 current amplification rate (%)” value under setting [4] stood at 174%.
`CC1CC=C(c2ccc(=O)n(CC(=O)N3CC=C(c4ccncc4)C3)n2)CC1` (racemic) [Example 387]: under setting [4], the “Nav1.1 current amplification rate (%)” value stood at 19%.
In the case of `N#Cc1ccc(NC(=O)Cn2nc(N3CCCCCC3)ccc2=O)cc1` [Example 11], the “Nav1.1 current amplification rate (%)” value under setting [1] was 205%.
As to `COCCNCc1cccc2c1CCN2C(=O)Cn1nc(C2=CCC(C)CC2)ccc1=O` (racemic) [Example 314], the “Nav1.1 current amplification rate (%)” value under setting [4] is reported as 9%.
Still for that read-out and setting: for `COC1CCN(Cc2cccc3c2CCN3C(=O)Cn2nc(C3=CCC(C)CC3)ccc2=O)C1` (mixture of isomers) [Example 272] the value was 127%.
As to `COc1cc(C)cc(F)c1-c1ccc(=O)n(CC(=O)Nc2ccn3ncnc3c2)n1` [Example 571], the activation at 10 µM under setting [3] was found to be 24%.
As for `CC1CCC(c2ccc(=O)n(CC(=O)Nc3ccc(C#N)cc3)n2)CC1` (centres unmarked) [Example 44], the “Nav1.1 current amplification rate (%)” value under setting [1] was 59%.
Take `CC1CC=C(c2ccc(=O)n(CC(=O)Nc3ccc(C#N)cc3F)n2)CC1` (centres unmarked) [Example 547]: the activation at 1 µM is 70%.
Regarding `CC1CC=C(c2ccc(=O)n(CC(=O)N3CCc4c3ccnc4C3=CCN(C(=O)OC(C)(C)C)C3)n2)CC1` (racemic) [Example 280], the “Nav1.1 current amplification rate (%)” value under setting [4] is 10%.
As to `CC1CC=C(c2ccc(=O)n(CC(=O)N3CCc4c(-c5cc[nH]n5)ccnc43)n2)CC1` (racemic) [Example 291], under setting [2], the “Nav1.1 current amplification rate (%)” value was 212%.
In the case of `N#Cc1ccc(NC(=O)Cn2nc(N3CCCC3)ccc2=O)cc1` [Example 4], the “Nav1.1 current amplification rate (%)” value under setting [1] was determined as 3%.
For `CCC1CC=C(c2ccc(=O)n(CC(=O)Nc3ccc4ncnn4c3)n2)CC1` (centres unmarked) [Example 555], the activation at 1 µM stood at 80%.
As for `CC1CC=C(c2ccc(=O)n(CC(=O)N3CCc4nc(-c5cn[nH]c5)ccc43)n2)CC1` (racemic) [Example 289], under setting [2], the “Nav1.1 current amplification rate (%)” value is recorded as 51%.
In the case of `CC1(C)CCC=C(c2ccc(=O)n(CC(=O)Nc3ccc(C#N)cc3)n2)C1` [Example 45], the “Nav1.1 current amplification rate (%)” value under setting [1] is listed as 202%.
In the case of `N#Cc1ccsc1-c1ccc(=O)n(CC(=O)Nc2ccn3ncnc3c2)n1` [Example 498], the activation at 10 µM under setting [1] came to 24%.
Regarding `CC1CC=C(c2ccc(=O)n(CC(=O)N3CCN(C4CCCOC4)CC3)n2)CC1` (centres unmarked) [Example 408], the “Nav1.1 current amplification rate (%)” value under setting [2] is listed as 80%.
Take `CCCCN(C)c1ccc(=O)n(CC(=O)Nc2ccc(C#N)cc2)n1` [Example 30]: the “Nav1.1 current amplification rate (%)” value under setting [1] is on record as 77%.
In the case of `CC1CC=C(c2ccc(=O)n(CC(=O)N3CCc4c3ccnc4-c3cn[nH]c3)n2)CC1` (racemic) [Example 285], the “Nav1.1 current amplification rate (%)” value under setting [4] is listed as 113%.
Take `CC1CC=C(c2ccc(=O)n(CC(=O)N3CCc4c(CN5CCCCC5)cccc43)n2)CC1` (racemic) [Example 282]: the “Nav1.1 current amplification rate (%)” value under setting [4] was 26%.
Consider `CC1CC=C(c2ccc(=O)n(CC(=O)N3CCc4c3ccnc4C3=CCN(C)C3)n2)CC1` (racemic) [Example 283], for which, under setting [4], the “Nav1.1 current amplification rate (%)” value turned out to be 15%.
On to `COCCCN1CC2(CCN(C(=O)Cn3nc(C4=CCC(C)CC4)ccc3=O)C2)C1` (racemic) [Example 308], for which, under setting [2], the “Nav1.1 current amplification rate (%)” value is reported as 9%.
With `CC1CC=C(c2ccc(=O)n(CC(=O)N3CCC(Cc4ccccc4)C3)n2)CC1` (racemic) [Example 389], the “Nav1.1 current amplification rate (%)” value under setting [1] was found to be 53%.
The same measure, in the same setting: for `N#Cc1ccc(NC(=O)Cn2nc(N3CCC4(CCCC4)C3)ccc2=O)cc1` [Example 24] the value was 286%.
